US20240252488A1 (KOREA RESEARCH INSTITUTE OF CHEMICAL TECHNOLOGY, priority 2020, published 2024)

Key:
FADD−/− Jurkat cells = assay: Necroptosis inhibition assay, TNF-α-induced necroptosis (CellTiter-Glo 2.0); type: cell-based, human; details: TNF-α 15 ng/mL; for Necroptosis inhibition assay (Rescue %) 10 μM: compound 10 μM; for Necroptosis inhibition assay (Rescue %) 1 μM: compound 1 μM
In short: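 FADD−/− Jurkat cells preincubated 30 min at room temperature with compound at 0.1, 1 and 10 μM final, then stimulated with TNF-α (15 ng/mL final) for 20–24 h at 37 °C, 5% CO2. Viability read as ATP luminescence; cytotoxicity and necroptosis inhibition rate calculated from luminescence values.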

MLKL [1] = biological target: T1, MLKL (Homo sapiens, UniProt Q8NB16); assay: MLKL degradation assay in HepG2 cell line (western blot); type: cell-based; design: endogenous in cells; host or cells: HepG2 or HaCaT; details: cell line not given; for Degradation assay (Degradation %) 1 μM: compound 1 μM; for Degradation assay (Degradation %) 10 μM: compound 10 μM
T1 sequence (Q8NB16 1-471): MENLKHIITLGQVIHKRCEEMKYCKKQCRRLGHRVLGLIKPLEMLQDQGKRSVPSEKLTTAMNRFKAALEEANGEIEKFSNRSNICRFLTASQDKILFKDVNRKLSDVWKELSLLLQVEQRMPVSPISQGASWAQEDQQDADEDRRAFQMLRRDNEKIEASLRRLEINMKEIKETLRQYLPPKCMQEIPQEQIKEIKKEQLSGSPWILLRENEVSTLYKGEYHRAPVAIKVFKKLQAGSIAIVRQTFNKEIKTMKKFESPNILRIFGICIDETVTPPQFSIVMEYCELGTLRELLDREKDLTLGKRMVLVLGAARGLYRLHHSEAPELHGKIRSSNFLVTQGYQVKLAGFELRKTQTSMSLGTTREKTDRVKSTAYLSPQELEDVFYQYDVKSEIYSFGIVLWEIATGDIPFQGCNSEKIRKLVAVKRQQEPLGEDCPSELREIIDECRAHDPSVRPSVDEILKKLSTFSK
In short: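 HepG2 cells were treated 20-24 h at 37 °C with compound at 1 or 10 μM final. RIPA lysates were normalized by BCA, and 10-15 μg protein per lane was resolved by SDS-PAGE. MLKL was detected by western blot with chemiluminescence.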

MLKL [2] = biological target: T1, MLKL; assay: Measurement of binding affinity with MLKL receptor (competitive binding assay, Kd); design: made in house; host or cells: HEK 293 cell line (T7 phage in E. coli BL21-derived host is also described)
In short: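 Competition binding of kinase tagged with DNA for qPCR detection, expressed in HEK 293 cells, against immobilized ligand on beads. Final DMSO 0.9%. Kd derived from kinase amount in eluates measured by qPCR.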

Structure (SMILES): Nc1ncc(-c2cnn(C3CCN(CCC4CCN(C(=O)CNc5ccc6nnn(C7CCC(=O)NC7=O)c(=O)c6c5)CC4)CC3)c2)nc1C(=O)O[C@@H](C(=O)Nc1ccc(F)cc1)c1ccccc1 (stereo partly drawn) [TDH-334, (R)-2-((4-fluorophenyl)amino)-2-oxo-1-phenylethyl 3-amino-6-(1-(1-(2-(1-((3-(2,6-dioxopiperidin-3-yl)-4-oxo-3,4-dihydrobenzo[d][1,2,3]triazin-6-yl)glycyl)piperidin-4-yl)ethyl)piperidin-4-yl)-1H-pyrazol-4-yl)pyrazine-2-carboxylate]
- Necroptosis inhibition assay (Rescue %) 1.1 μM (FADD−/− Jurkat cells; compound 1.1 µM): 86.58 (1.1 µM) %
- Necroptosis inhibition assay (Rescue %) 10 μM (FADD−/− Jurkat cells): 50.45%
- Degradation assay (Degradation %) 1 μM (MLKL [1]): 75.98%
- Degradation assay (Degradation %) 10 μM (MLKL [1]): 83.61%
- Kd (MLKL [2]): 0.82 nM

Structure (SMILES): Nc1ncc(-c2cnn(C3CCN(CCC4CCN(C(=O)C5CCN(c6ccc7c(c6)C(=O)N(C6CCC(=O)NC6=O)C7=O)CC5)CC4)CC3)c2)nc1C(=O)O[C@@H](C(=O)Nc1ccc(F)cc1)c1ccccc1 (stereo partly drawn) [TDH-197, (R)-2-((4-fluorophenyl)amino)-2-oxo-1-phenylethyl 3-amino-6-(1-(1-(2-(1-(1-(2-(2,6-dioxopiperidin-3-yl)-1,3-dioxoisoindolin-5-yl)piperidine-4-carbonyl)piperidin-4-yl)ethyl)piperidin-4-yl)-1H-pyrazol-4-yl)pyrazine-2-carboxylate]
- Necroptosis inhibition assay (Rescue %) 1 μM (FADD−/− Jurkat cells): 56.07%
- Necroptosis inhibition assay (Rescue %) 10 μM (FADD−/− Jurkat cells): 32.02%
- Degradation assay (Degradation %) 1 μM (MLKL [1]): 58.62%
- Degradation assay (Degradation %) 10 μM (MLKL [1]): 23.6%
- Kd (MLKL [2]): 0.74 nM

Structure (SMILES): Nc1ncc(-c2cnn(C3CCN(CCOCCOCCNC(=O)COc4ccc5c(c4)C(=O)N(C4CCC(=O)NC4=O)C5=O)CC3)c2)nc1C(=O)O[C@@H](C(=O)Nc1ccc(F)cc1)c1ccccc1 (stereo partly drawn) [TDH-167, (R)-2-((4-fluorophenyl)amino)-2-oxo-1-phenylethyl 3-amino-6-(1-(1-(2-(2-(2-(2-((2-(2,6-dioxopiperidin-3-yl)-1,3-dioxoisoindolin-5-yl)oxy)acetamido)ethoxy)ethoxy)ethyl)piperidin-4-yl)-1H-pyrazol-4-yl)pyrazine-2-carboxylate]
- Necroptosis inhibition assay (Rescue %) 1 μM (FADD−/− Jurkat cells): 45.5%
- Necroptosis inhibition assay (Rescue %) 10 μM (FADD−/− Jurkat cells): 38.58%
- Degradation assay (Degradation %) 1 μM (MLKL [1]): 36.7%
- Degradation assay (Degradation %) 10 μM (MLKL [1]): 60.91%
- Kd (MLKL [2]): 1.7 nM

Structure (SMILES): Nc1ncc(-c2cnn(C3CCN(CCOC4CCN(C(=O)CNc5ccc6c(c5)C(=O)N(C5CCC(=O)NC5=O)C6=O)CC4)CC3)c2)nc1C(=O)OC(C(=O)Nc1ccc(F)cc1)c1ccccc1 (stereo not drawn) [TDH-250, 2-((4-fluorophenyl)amino)-2-oxo-1-phenylethyl 3-amino-6-(1-(1-(2-((1-((2-(2,6-dioxopiperidin-3-yl)-1,3-dioxoisoindolin-5-yl)glycyl)piperidin-4-yl)oxy)ethyl)piperidin-4-yl)-1H-pyrazol-4-yl)pyrazine-2-carboxylate]
- Necroptosis inhibition assay (Rescue %) 1 μM (FADD−/− Jurkat cells): 69.46%
- Necroptosis inhibition assay (Rescue %) 10 μM (FADD−/− Jurkat cells): 46.6%
- Degradation assay (Degradation %) 1 μM (MLKL [1]): 78.33%
- Degradation assay (Degradation %) 10 μM (MLKL [1]): 71.54%
- Kd (MLKL [2]): 4.9 nM

Structure (SMILES): Nc1ncc(-c2cnn(C3CCN(CCCN4CCN(CC5CCN(c6ccc7c(c6)C(=O)N(C6CCC(=O)NC6=O)C7=O)CC5)CC4)CC3)c2)nc1C(=O)O[C@@H](C(=O)Nc1ccc(F)cc1)c1ccccc1 (stereo partly drawn) [TDH-474, (R)-2-((4-fluorophenyl)amino)-2-oxo-1-phenylethyl 3-amino-6-(1-(1-(3-(4-((1-(2-(2,6-dioxopiperidin-3-yl)-1,3-dioxoisoindolin-5-yl)piperidin-4-yl)methyl)piperazin-1-yl)propyl)piperidin-4-yl)-1H-pyrazol-4-yl)pyrazine-2-carboxylate]
- Necroptosis inhibition assay (Rescue %) 1 μM (FADD−/− Jurkat cells; FADD−/− Jurkat cells): 25.61%
- Necroptosis inhibition assay (Rescue %) 10 μM (FADD−/− Jurkat cells; FADD−/− Jurkat cells): 5.98%
- Degradation assay (Degradation %) 1 μM (MLKL [1]): 54.33%
- Degradation assay (Degradation %) 10 μM (MLKL [1]): 68.31%
- Kd (MLKL [2]): 0.95 nM

Structure (SMILES): Nc1ncc(-c2cnn(C3CCN(CC4CCN(C(=O)CNc5cccc6c5C(=O)N(C5CCC(=O)NC5=O)C6=O)CC4)CC3)c2)nc1C(=O)O[C@@H](C(=O)Nc1ccc(F)cc1)c1ccccc1 (stereo partly drawn) [TDH-136, (R)-2-((4-fluorophenyl)amino)-2-oxo-1-phenylethyl 3-amino-6-(1-(1-((1-((2-(2,6-dioxopiperidin-3-yl)-1,3-dioxoisoindolin-4-yl)glycyl)piperidin-4-yl)methyl)piperidin-4-yl)-1H-pyrazol-4-yl)pyrazine-2-carboxylate]
- Necroptosis inhibition assay (Rescue %) 1 μM (FADD−/− Jurkat cells): 48.59%
- Necroptosis inhibition assay (Rescue %) 10 μM (FADD−/− Jurkat cells): 40.66%
- Degradation assay (Degradation %) 1 μM (MLKL [1]): 50.37%
- Degradation assay (Degradation %) 10 μM (MLKL [1]): 48.83%
- Kd (MLKL [2]): 4.6 nM

Structure (SMILES): Cc1ncsc1-c1ccc(CNC(=O)[C@H]2C[C@H](O)CN2C(=O)[C@@H](NC(=O)CN2CCC(CCN3CCC(n4cc(-c5cnc(N)c(C(=O)OC(C(=O)Nc6ccc(F)cc6)c6ccccc6)n5)cn4)CC3)CC2)C(C)(C)C)cc1 (stereo partly drawn) [TDH-312, 2-((4-fluorophenyl)amino)-2-oxo-1-phenylethyl 3-amino-6-(1-(1-(2-(1-(2-(((S)-1-((2R,4S)-4-hydroxy-2-((4-(4-methylthiazol-5-yl)benzyl)carbamoyl)pyrrolidin-1-yl)-3,3-dimethyl-1-oxobutan-2-yl)amino)-2-oxoethyl)piperidin-4-yl)ethyl)piperidin-4-yl)-1H-pyrazol-4-yl)pyrazine-2-carboxylate]
- Necroptosis inhibition assay (Rescue %) 1 μM (FADD−/− Jurkat cells): 75.61%
- Degradation assay (Degradation %) 1 μM (MLKL [1]): 59.87%
- Degradation assay (Degradation %) 10 μM (MLKL [1]): 40.64%
- Kd (MLKL [2]): 6.9 nM

Structure (SMILES): Nc1ncc(-c2cnn(C3CCN(CC4CN(c5cccc6c5C(=O)N(C5CCC(=O)NC5=O)C6=O)CCO4)CC3)c2)nc1C(=O)OC(C(=O)Nc1ccc(F)cc1)c1ccccc1 (stereo not drawn) [TDH-310, 2-((4-fluorophenyl)amino)-2-oxo-1-phenylethyl 3-amino-6-(1-(1-((4-(2-(2,6-dioxopiperidin-3-yl)-1,3-dioxoisoindolin-4-yl)morpholin-2-yl)methyl)piperidin-4-yl)-1H-pyrazol-4-yl)pyrazine-2-carboxylate]
- Necroptosis inhibition assay (Rescue %) 1 μM (FADD−/− Jurkat cells): 40.08%
- Necroptosis inhibition assay (Rescue %) 10 μM (FADD−/− Jurkat cells): 41.99%
- Degradation assay (Degradation %) 1 μM (MLKL [1]): 35.97%
- Degradation assay (Degradation %) 10 μM (MLKL [1]): 27.19%
- Kd (MLKL [2]): 2.6 nM

Structure (SMILES): Nc1ncc(-c2cnn(C3CCN(C(=O)CCC4CCN(c5cccc6c5C(=O)N(C5CCC(=O)NC5=O)C6=O)CC4)CC3)c2)nc1C(=O)O[C@@H](C(=O)Nc1ccc(F)cc1)c1ccccc1 (stereo partly drawn) [TDH-419, (R)-2-((4-fluorophenyl)amino)-2-oxo-1-phenylethyl 3-amino-6-(1-(1-(3-(1-(2-(2,6-dioxopiperidin-3-yl)-1,3-dioxoisoindolin-4-yl)piperidin-4-yl)propanoyl)piperidin-4-yl)-1H-pyrazol-4-yl)pyrazine-2-carboxylate]
- Necroptosis inhibition assay (Rescue %) 1 μM (FADD−/− Jurkat cells; FADD−/− Jurkat cells): 26.56%
- Necroptosis inhibition assay (Rescue %) 10 μM (FADD−/− Jurkat cells; FADD−/− Jurkat cells): 18.52%
- Degradation assay (Degradation %) 1 μM (MLKL [1]): 82.06%
- Degradation assay (Degradation %) 10 μM (MLKL [1]): 64.50%
- Kd (MLKL [2]): 5.9 nM

Structure (SMILES): Nc1ncc(-c2cnn(C3CCN(CCOC4CCN(C(=O)CCc5cccc6c5C(=O)N(C5CCC(=O)NC5=O)C6=O)CC4)CC3)c2)nc1C(=O)O[C@@H](C(=O)Nc1ccc(F)cc1)c1ccccc1 (stereo partly drawn) [TDH-378, (R)-2-((4-fluorophenyl)amino)-2-oxo-1-phenylethyl 3-amino-6-(1-(1-(2-((1-(3-(2-(2,6-dioxopiperidin-3-yl)-1,3-dioxoisoindolin-4-yl)propanoyl)piperidin-4-yl)oxy)ethyl)piperidin-4-yl)-1H-pyrazol-4-yl)pyrazine-2-carboxylate]
- Necroptosis inhibition assay (Rescue %) 1 μM (FADD−/− Jurkat cells): 49.61%
- Necroptosis inhibition assay (Rescue %) 10 μM (FADD−/− Jurkat cells): 28.89%
- Degradation assay (Degradation %) 1 μM (MLKL [1]): 88.62%
- Degradation assay (Degradation %) 10 μM (MLKL [1]): 80.01%
- Kd (MLKL [2]): 2 nM

Structure (SMILES): Nc1ncc(-c2cnn(C3CCN(C(=O)CC4CCN(C(=O)COc5ccc6c(c5)C(=O)N(C5CCC(=O)NC5=O)C6=O)CC4)CC3)c2)nc1C(=O)O[C@@H](C(=O)Nc1ccc(F)cc1)c1ccccc1 (stereo partly drawn) [TDH-338, (R)-2-((4-fluorophenyl)amino)-2-oxo-1-phenylethyl 3-amino-6-(1-(1-(2-(1-(2-((2-(2,6-dioxopiperidin-3-yl)-1,3-dioxoisoindolin-5-yl)oxy)acetyl)piperidin-4-yl)acetyl)piperidin-4-yl)-1H-pyrazol-4-yl)pyrazine-2-carboxylate]
- Necroptosis inhibition assay (Rescue %) 1 μM (FADD−/− Jurkat cells): 50.8%
- Necroptosis inhibition assay (Rescue %) 10 μM (FADD−/− Jurkat cells): 50.29%
- Degradation assay (Degradation %) 1 μM (MLKL [1]): 59.83%
- Degradation assay (Degradation %) 10 μM (MLKL [1]): 79.19%
- Kd (MLKL [2]): 5.5 nM
